Data: patent publication US20090197878A1, “SUBSTITUTED BENZO[d][1,3]OXAZIN-2(4H)-ONES AND RELATED DERIVATIVES AND THEIR USES FOR MODULATING THE PROGESTERONE RECEPTOR” (Wyeth, priority 2008, published 2009)

Columns and labels:
[1] = system: alkaline phosphatase activity in T47D cells; test: Effects of progestins and antiprogestins on alkaline phosphatase activity in T47D cells; assay type: cell-based; details: Homo sapiens; for IC50: antagonist mode in the presence of 1 nM progesterone, 24 hours; for inhibition at 3 µM: at 3000 nM; for inhibition at 0.3 µM: at 300 nM
Procedure: The purpose of this example is to identify progestins or antiprogestins by determining a compound's effect on alkaline phosphatase activity in T47D cells.
A. Reagents: • Culture medium: Dulbecco's Modified Eagle Medium (DMEM):F12 (1:1) (GIBCO, BRL) supplemented with 5% (v/v) charcoal stripped fetal bovine serum (not heat-inactivated), 100 U/mL penicillin, 100 μg/mL streptomycin, and 2 mM of the GlutaMax® reagent (GIBCO, BRL). • Alkaline phosphatase assay buffer: • I. 0.1M Tris-HCl, pH 9.8, containing 0.2% Triton® X-100 reagent • II. 0.1M Tris-HCl, pH 9.8, containing 4 mM p-nitrophenyl phosphate (Sigma).
Frozen T47D cells are thawed in a 37° C. water bath and diluted to 280,000 cells/mL in culture medium. To each well in a 96-well plate (Falcon, Becton Dickinson Labware), was added 180 μL of diluted cell suspension. Twenty μL of reference or test compounds diluted in the culture medium is then added to each well. When testing for progestin antagonist activity, reference antiprogestins or test compounds are added in the presence of 1 nM progesterone. The cells are incubated at 37° C. in a 5% CO2/humidified atmosphere for 24 hours. For high throughput screening, one concentration of each compound will be tested at 0.3 μg/mL. Based on an average molecular weight of 300 g/mol for the compounds in the library, the concentration is approximately 1 μM. Compounds active in this assay can be tested in dose response assays to determine EC50 and IC50.
C. Alkaline Phosphatase Enzyme Assay: • At the end of treatment, the medium is removed from the plate. Fifty μL of assay buffer I is added to each well. The plates are shaken in a titer plate shaker for 15 minutes. Then 150 μL of assay buffer II is added to each well. Optical density measurements are taken at 5 minute intervals for 30 minutes at a test wavelength of 405 nm.
D. Analysis of Results: Analysis of Dose-Response Data • For reference and test compounds, a dose response curve is generated for dose (X-axis) vs. the rate of enzyme reaction (slope) (Y-axis). Square root-transformed data are used for analysis of variance and nonlinear dose response curve fitting for both agonist and antagonist modes. Huber weighting is used to down-weight the effects of outliers. EC50 or IC50 values are calculated from the retransformed values. JMP® software (SAS Institute, Inc.) is used for both one-way analysis of variance and non-linear dose response analysis in both single dose and dose response studies.
E. Reference Compounds • Progesterone and trimegestone are reference progestins and RU486 is the reference antiprogestin. All reference compounds are run in full dose response curves and the EC50 and IC50 values are calculated.

[2] = in the presence of 1 nM progesterone

| Compound | melting point | inhibition at 3 µM [1, 2] | also measured |
| --- | --- | --- | --- |
| COC(=O)/C=C/c1ccc2c(c1)C(C)(C)CC(=O)N2 [Example 1, Methyl(2E)-3-(4,4-dimethyl-2-oxo-1,2,3,4-tetrahydroquinolin-6-yl)acrylate] | 174 to 175 °C | – | – |
| CC1(C)OC(=O)Nc2ccc(/C=C/C#N)cc21 [Example 8, (2E)-3-(4,4-Dimethyl-2-oxo-1,4-dihydro-2H-3,1-benzoxazin-6-yl)acrylonitrile] | 238 to 240 °C (dec.) | – | – |
| CC1(C)OC(=O)Nc2ccc(C3=CC(=O)OCC3)cc21 [Example 10, 4,4-Dimethyl-6-(6-oxo-3,6-dihydro-2H-pyran-4-yl)-1,4-dihydro-2H-3,1-benzoxazin-2-one] | 235 to 236 °C (dec.) | – | – |
| C/C(=C\C(N)=O)c1ccc2c(c1)C1(CCCCC1)OC(=O)N2 [Example 16, (2E)-3-(2-Oxo-1,2-dihydrospiro[3,1-benzoxazine-4,1′-cyclohexan]-6-yl)but-2-enamide] | 204 to 207 °C (dec.) | 0% | – |
| C/C(=C\C#N)c1ccc2c(c1)C1(CCCCC1)OC(=O)N2 [Example 17, (2E)-3-(2-oxo-1,2-dihydrospiro[3,1-benzoxazine-4,1′-cyclohexan]-6-yl)but-2-enenitrile] | 208 to 210 °C (dec.) | – | inhibition at 0.3 µM [1, 2]: 60% |
| CC/C(=C\C#N)c1ccc2c(c1)C1(CCCCC1)OC(=O)N2 [Example 19, (2E)-3-(2-Oxo-1,2-dihydrospiro[3,1-benzoxazine-4,1′-cyclohexan]-6-yl)pent-2-enenitrile] | 173 to 174 °C | – | inhibition at 0.03 µM ([1]; at 30 nM, in the presence of 1 nM progesterone): 60% |
| CC(C)/C(=C\C#N)c1ccc2c(c1)C1(CCCCC1)OC(=O)N2 [Example 21, (2E)-4-Methyl-3-(2-oxo-1,2-dihydrospiro[3,1-benzoxazine-4,1′-cyclohexan]-6-yl)pent-2-enenitrile] | 201 to 203 °C (dec.) | – | inhibition at 0.3 µM [1, 2]: 60% |
| CCC/C(=C\C=O)c1ccc2c(c1)C(CC)(CC)OC(=O)N2 [Example 26, (2E)-3-(4,4-Diethyl-2-oxo-1,4-dihydro-2H-3,1-benzoxazin-6-yl)hex-2-enal] | 173 to 179 °C | 100% | – |

Continued, in another order:

| melting point | Compound | inhibition at 3 µM [1, 2] | also measured |
| --- | --- | --- | --- |
| 204 to 205 °C | COC(=O)/C=C/c1ccc2c(c1)C(C)(C)OC(=O)N2 [Example 2, Methyl(2E)-3-(4,4-dimethyl-2-oxo-1,4-dihydro-2H-3,1-benzoxazin-6-yl)acrylate] | – | – |
| 190 to 193 °C | CC1(C)OC(=O)Nc2ccc(/C=C/c3ccno3)cc21 [Example 3, 6-[(E)-2-Isoxazol-5-ylvinyl]-4,4-di-methyl-1,4-dihydro-2H-3,1-benzoxazin-2-one] | – | – |
| 196 to 198 °C | CC1(C)OC(=O)Nc2ccc(/C=C/C(N)=O)cc21 [Example 4, (2E)-3-(4,4-Dimethyl-2-oxo-1,4-dihydro-2H-3,1-benzoxazin-6-yl)acrylamide] | – | IC50 [1]: 50 µM |
| 198 to 200 °C | C/C(=C\C(N)=O)c1ccc2c(c1)C(C)(C)OC(=O)N2 [Example 5, (2E)-3-(4,4-Dimethyl-2-oxo-1,4-dihydro-2H-3,1-benzoxazin-6-yl)but-2-enamide] | – | IC50 [1]: 50 µM |
| 219 to 220 °C | CC1(C)OC(=O)Nc2ccc(/C(=C/C(N)=O)c3ccccc3)cc21 [Example 7, (2E)-3-(4,4-Dimethyl-2-oxo-1,4-dihydro-2H-3,1-benzoxazin-6-yl)-3-phenylacrylamide] | – | IC50 [1]: 50 µM |
| 181 to 182 °C | COC(=O)/C=C(\c1ccccc1)c1ccc2c(c1)C(C)(C)OC(=O)N2 [Example 11, Methyl(2E)-3-(4,4-dimethyl-2-oxo-1,4-dihydro-2H-3,1-benzoxazin-6-yl)-3-phenylacrylate] | – | – |
| 260 to 261 °C (dec.) | CC1(C)OC(=O)Nc2ccc(/C=C/C(=O)O)cc21 [Example 14, (2E)-3-(4,4-Dimethyl-2-oxo-1,4-dihydro-2H-3,1-benzoxazin-6-yl)acrylic acid] | 0% | – |
| 274 to 275 °C (dec.) | C/C(=C\C(=O)O)c1ccc2c(c1)C(C)(C)OC(=O)N2 [Example 15, (2E)-3-(4,4-Dimethyl-2-oxo-1,4-dihydro-2H-3,1-benzoxazin-6-yl)but-2-enoic acid] | 0% | – |
| 235 to 238 °C (dec.) | CC/C(=C\C(N)=O)c1ccc2c(c1)C1(CCCCC1)OC(=O)N2 [Example 18, (2E)-3-(2-Oxo-1,2-dihydrospiro[3,1-benzoxazine-4,1′-cyclohexan]-6-yl)pent-2-enamide] | 22% | – |
| 212 to 213 °C | CCC/C(=C\C(N)=O)c1ccc2c(c1)C(CC)(CC)OC(=O)N2 [Example 24, (2E)-3-(4,4-Diethyl-2-oxo-1,4-dihydro-2H-3,1-benzoxazin-6-yl)hex-2-enamide] | 65% | – |
